Test results reported in patent publication US20210220450A1, “TREATMENT OF AN IOP CONDITION” (The Research Foundation for The State University of New York, priority 2013, published 2021).

Assays:
[1] = system: Mmp-9KO mice; experiment: Outflow facility in protein treated Mmp-9KO mouse eyes (Example 16); format: in vivo; settings: intravitreal protein, p>0.05
Description: (§1) PlatKO and Mmp-9KO mice were also not given steroids prior to protein injections (FIG. 10c). Within each cohort, animals were divided into two groups:
(§2) 1) Animals that received unilateral intravitreal injection with 2 μl of tPA (5 μg/μl, Actilyse; Boehringer Ingelheim, Ingelheim am Rhein, Germany) while the contralateral eye received 2 μl of BSA (5 μg/μl; Gold Biotechnology, St Louis, Mo., USA), and 2) Animals that received unilateral intravitreal injections with 2 μl of non-enzymatically active tPA (NE-tPA/S478A-tPA) (5 μg/μl; Innovative Research, Novi, Mich., USA) while the contralateral eye received 2 μl of BSA. Animals were euthanized two days after intravitreal injection.
(§3) Outflow facility determination: Mouse eyes were enucleated immediately after euthanasia. Outflow facility was determined using a constant pressure method, as previously described. Pressure was raised in steps of 4 cmH2O, from 8 cmH2O (5.88 mmHg) to 32 cmH2O (23.54 mmHg) by increasing the height of a column of fluid of BSS. Steady state was initially achieved after 10 minutes. […] Flow was constantly measured via a microfluidic flow sensor (0.07-1.5 uL/min, MFS1; Elveflow, Paris, France). […] Any eyes that developed visible leaks during outflow facility determination, or that had pressure-flow correlations with R^2<0.9, were excluded from analysis but were used for RNA quantification.

[2] = system: MMP-2, MMP-9, MMP-13; experiment: MMP expression in PA treated HTM cells (Examples 17, 18); format: cell-based; settings: PA treated HTM cells
[3] = system: PlatKO mice; experiment: Outflow facility in protein treated PlatKO mouse eyes (Example 14); format: in vivo; settings: intravitreal protein
Description: as §1, §2, §3

[4] = system: Mmp-2, Mmp-9, Mmp-13, Plat; experiment: Mmp and Plat expression in protein treated C57BL/6J eyes not exposed to steroids (Example 15); format: in vivo, mouse; settings: C57BL/6J not exposed to steroids
[5] = intravitreal use; toxicity attributed to arginine in commercial preparations; cited from earlier work
[6] = system: sheep of the Corriedale breed; experiment: Steroid-induced IOP elevation in sheep, intravitreal tPA (Examples 3, 4); format: in vivo
Description: Protocol 1. 8 sheep of the Corriedale breed were treated with prednisolone acetate three times a day in both eyes, leading to elevated IOP. After one week, the animals received intravitreal injections of human recombinant tPA (100, 200, 500 and 1000 μg, two animals each) dissolved in balanced salt solution (BSS) in one eye. IOP was monitored for 19 more days while the animals continued to receive treatment with prednisolone. Periodic slit lamp examination was also performed.
Protocol 2. In a second set of experiments, arginine was added to the BSS vehicle administered to the left eye to control for the relatively high concentration of the amino acid in the commercially available tPA lyophilisate. In these experiments all right eyes received 0.1 mg tPA, which concomitantly delivered 4.23 mg of arginine into the vitreous, and the left eye received this same amount of arginine, absent the tPA. On Day 1, prednisolone treatments were also begun simultaneously on both eyes.
Methods. In this experiment, the inventor sought to detect the effects of tPA treatment on prevention of steroid-induced IOP elevation. In 4 sheep tPA was injected in one eye (100 μg) and they were started on prednisolone acetate three times a day in both eyes. Animals were monitored for 11 days on continuous treatment.

[7] = system: C57BL/6J mice; experiment: Outflow facility in protein treated C57BL/6J eyes not exposed to steroids (Example 15); format: in vivo, mouse; settings: C57BL/6J not exposed to steroids, intravitreal protein
Description: 1) Animals receiving bilateral steroid (TA) injection subconjunctivally five days prior to protein injection (FIG. 10b) and 2) Animals not receiving subconjunctival steroids (FIG. 10c).
as §2, §3

[8] = system: sheep of the Coriedale breed; experiment: Steroid-induced IOP elevation in sheep, tPA injected into the anterior chamber (Example 9); format: in vivo
Description: Methods. Lyophilized tPA, obtained as Acetilyse® from Boehringer Ingelheim S. A. (Buenos Aires) containing arginine, was used. Five sheep of the Coriedale breed were selected. Initially all eyes received instillation of 1% prednisolone 3 times/day for 10 days to elevate their IOP from 10 mm Hg to about 23 mm Hg. Then, 0.0001 μg was injected into one of the eyes and its effect was followed for up to 55:00 hrs while the instillation of prednisolone continued in both eyes. The same protocol was implemented for the 0.001 and 0.01 μg amounts (after extended washout) in the contra lateral eyes. Arginine, which is associated with 0.01 ug tPA, was injected alone and had no effect.

tissue plasminogen activator [tPA]
effect on outflow facility [1]: did not increase | MMP-2 expression ([2]; between treatments): not significantly different | expression (FIG. 17C, MMP-9) ([2]; vs PA+BSA): significant upregulation | increase in outflow facility compared to BSA treated eyes [3]: 46% | outflow facility, mean±standard deviation ([3]; no steroid, two days): 89±27×10^−5 μl/min/mmHg | endogenous Plat expression [4]: did not cause significant changes | gene expression changes in Mmp-2, Mmp-9 and Mmp-13 ([4]; vs BSA): not significantly different | doses with reported retinal toxicity [5]: 50 to 100 µg | prevention of steroid-induced IOP elevation ([6]; 100 μg in one eye, concurrent with prednisolone, 11 days): prevented IOP elevation | ocular observations ([6]; intravitreal tPA, prednisolone-treated sheep, some eyes): Transient injection and corneal clouding | IOP after tPA ([6]; within 24 h, all intravitreal doses tested (100-1000 μg), prednisolone continued): 14.1(±1.1) mmHg | outflow facility, mean±standard deviation [7]: 102.7±19.5×10^−5 μl/min/mmHg | effect on IOP ([8]; 0.0001 μg into the AC, IOP 23.0 mm Hg at 6:00 and 30:00 hrs): had no effect | IOP ([8]; 0.001 μg into the AC, 6:00 hr, from 23.1): 18.6 mmHg | IOP ([8]; 0.001 μg into the AC, 30:00 hr): 22.3 mm Hg | IOP ([8]; 0.01 μg into the AC, 6:00 hrs, baseline 23.4): 14.2 mm Hg | IOP ([8]; 0.01 μg into the AC, 30:00 hrs): 19.0 mm Hg | IOP ([8]; 0.01 μg into the AC, 48:00 hrs): 20.9 mm Hg | IOP ([8]; 0.01 μg into the AC, 55:00 hrs): 22.3 mm Hg | effect on IOP ([8]; single dose of 1 μg of tPA injected intracamerally): reduction in IOP
